Legend:
[1] = LNP characterization of base editor LNP preparations (DLS diameter, PDI, encapsulation efficiency); format: physicochemical
Description: (§1) Lipid nanoparticle components are dissolved in 100% ethanol at specified lipid component molar ratios. mRNA encoding an adenine base editor and a chemically-modified sgRNA is dissolved at a mass ratio of 1:1 in 10 mM citrate, 100 mM NaCl, pH 4.0, resulting in a concentration of NA cargo of approximately 0.22 mg/mL. LNP preparations are formulated with molar ratios of either 50% Ionizable Lipid: 38.5% Cholesterol: 1.5% PEG2000-DMG: 10% DSPC or 47.5% Ionizable Lipid: 40% Cholesterol: 2.5% PEG2000-DMG: 10% DSPC both at a total lipid to NA molar ratio of 6.
(§2) LNP preparations are formed by microfluidic mixing of the lipid and NA solutions using a Precision Nanosystems NanoAssemblr Ignite Instrument, according to the manufacturer's protocol. A 3:1 ratio of aqueous to organic solvent is maintained during mixing using differential flow rates. After mixing, LNP preparations are collected, diluted in PBS (approximately 2:1 v/v), and further buffer exchange is conducted using dialysis in PBS at 4° C. for 8 to 24 hours against a 20 kDa filter. After this initial dialysis, each individual LNP preparation is characterized via dynamic light scattering (DLS) to measure size and polydispersity. pKa of a subpopulation of LNP preparations is measured via TNS assay. After dialysis, LNP preparations are sterile filtered using 0.22 micron sterile filter and stored at 4° C. for further use. In some embodiments, LNP preparations may be concentrated using 100 kDa Amicon filters per manufacturer's protocol.
DLS—LNP preparation hydrodynamic diameter and polydispersity index (PDI) is measured using high throughput dynamic light scattering (DLS) (DynaPro plate reader II, Wyatt). LNP preparations are diluted 1×PBS to an appropriate concentration and analyzed.
Concentration of NA is determined by Qubit microRNA kit (for siRNA) or HS RNA kit (for mRNA) per manufacturer's instructions. Encapsulation efficiency is determined by measuring unlysed and lysed LNPs.

[2] = LNP preparation characterization (encapsulation efficiency, DLS size and polydispersity), barcoded screen LNPs; format: physicochemical; details: LNP 47.5% ionizable lipid: 40% cholesterol: 2.5% PEG-2000 DMG: 10% DPSC, N/P 4.5-6; for AVG PDI / AVG Z Dia (nm): DLS
Description: Lipid nanoparticle components were dissolved in 100% ethanol at specified lipid component molar ratios. Nucleic acid (NA) cargo was dissolved in 10 mM citrate, 100 mM NaCl, pH 4.0, resulting in a concentration of NA cargo of approximately 0.22 mg/mL. In some embodiments, NA cargos included both a functional NA and a reporter barcode mixed at mass ratios of 1:10 to 10:1 functional NA to barcode. As described herein, a NA can be a siRNA, an anti-sense, an expressing DNA, or mRNA.
LNP preparations were prepared with 47.5% Ionizable Lipid (e.g., a compound provided herein): 40% cholesterol: 2.5% PEG-2000 DMG: 10% DPSC and an N/P ratio range of 4.5-6. LNP preparations were formed by microfluidic mixing of the lipid and NA solutions using Precision Nanosystems NanoAssemblr Spark or Benchtop series Instruments, according to the manufacturer's protocol.
A ratio of aqueous to organic solvent of approximately 2:1 or 3:1 was maintained during mixing using differential flow rates. After mixing, LNP preparations were collected, diluted in phosphate buffer saline (PBS) or Tris-buffered saline (TBS) (approximately 1:1 v/v). Further buffer exchange was conducted using dialysis in PBS or TBS at 4° C. for 4 to 24 hours against a 20 kDa filter. After this initial dialysis, each individual LNP preparation may be characterized via dynamic light scattering (DLS) to measure the size (e.g., diameter) and polydispersity. LNP preparations falling within specific diameter and polydispersity ranges were pooled, and further dialyzed against PBS or TBS at 4° C. for 1 to 4 hours against a 100 kDa dialysis cassette. After the second dialysis, LNP preparations were sterile filtered using 0.22 μm filter and stored at 4° C. for further use.

[3] = tested on: ALAS1 target site; test: In vivo base editing with ABE mRNA and sgRNA targeting ALAS1; parameters: species or system Balb/c mice; details: for Liver Editing A->G (%): 4 days after dosing
Description: as §1, §2
Male Balb/C mice aged approximately 8-12 weeks are used in the experiments described herein. Each mouse is temporarily restrained, and LNP preparations are administered IV via tail vein injection. Age-matched mice are also used to administer vehicle (1×PBS) via tail vein injection as a control. Four to six days post-dose, tissues including liver, spleen, heart and muscle are collected (only liver and muscle (quardracept) are reported). Genomic DNA is isolated and fragmented and adapter-ligated using the Nextera DNA Flex Library Prep Kit (Illumina) using the 96-well plate Nextera indexing primers (Illumina), according to the manufacturer's instructions. Library size and concentration is confirmed by Fragment Analyzer (Agilent) and sent to Novogene for whole genome sequencing using an Illumina HiSeq.
For base editing, mRNA encoding an adenine base editor (ABE) and a guide RNA (sgRNA) targeting ALAS1 at 1:1 (mass ratio) are coencapsulated in LNP preparations as described herein. LNP preparations are administrated into Balb/c mice through tail vein injections at concentrations ranging from 0.05 to 3.0 mg/kg total RNA. At 4 days after dosing, mice are euthanized and liver, spleen and bone barrow are harvested. Base editing is determined by performing targeted deep sequencing analysis at the ALAS1 target site using extracted genomic DNA.

[4] = Table D LNPs, formulation ratio 50:38.5:1.5:10, ABE mRNA/ALAS1 sgRNA
[5] = dose 3 MPK IV, formulation ratio 50:38.5:1.5:10, liver
[6] = dose 3 MPK IV, formulation ratio 50:38.5:1.5:10, quadricep muscle
[7] = Table C LNPs, formulation ratio 47.5:40:2.5:10, ABE mRNA/ALAS1 sgRNA

Diameter (nm) [1, 4]	EE (%) [1, 4]	PDI (%) [1, 4]	AVG EE(%) [2]	AVG PDI [2]	AVG Z Dia (nm) [2]	Diameter (nm) [1, 7]	EE (%) [1, 7]	PDI (%) [1, 7]	SMILES	Liver Editing A->G (%) ([3]; dose 1.5 MPK IV, formulation ratio 50:38.5:1.5:10, liver)	Quadrecept Editing A->G (%) ([3]; dose 1.5 MPK IV, formulation ratio 50:38.5:1.5:10, quadricep muscle)	Liver Editing A->G (%) [3, 5]	Quadrecept Editing A->G (%) [3, 6]	Liver Editing A->G (%) ([3]; dose 0.1 MPK IV, formulation ratio 47.5:40:2.5:10, liver)	Quadrecept Editing A->G (%) ([3]; dose 0.1 MPK IV, formulation ratio 47.5:40:2.5:10, quadricep muscle)	Liver Editing A->G (%) ([3]; dose 0.05 MPK IV, formulation ratio 47.5:40:2.5:10, liver)
98.8 nm	98.59%	9.5%	83.5%	0.06	108.73 nm				C=CCCCCC(CCCCC=C)OC(=O)CCCCCC(=O)OCC(COC(=O)CCCCCC(=O)OC(CCCCC=C)CCCCC=C)COC(=O)CCCN1CCCC1 [Compound (2)]	79.48%	3.19%					
69.8 nm	99.3%	11.9%	85.3%	0.13	77.22 nm				C=CCCCCCCC(CCCCCCC=C)OC(=O)CCCCC(=O)OCC(COC(=O)CCCCC(=O)OC(CCCCCCC=C)CCCCCCC=C)COC(=O)CCCN1CCCC1 [Compound (3), 1-Heptadeca-1,16-dien-9-yl6-[2-({[6-(hentadeca-1,16-dien-9-yloxy)-6-oxohexanoyl]oxy}methyl)-3-{[4-(pyrrolidin-1-yl)butanoyl]oxy}propyl]hexanedioate]			69.43%	3.8%			
73.7 nm	98.07%	15.3%	78.0%	0.10	97.43 nm				C=CCCCCC(CCCCC=C)OC(=O)CCCCCCC(=O)OCC(COC(=O)CCCCCCC(=O)OC(CCCCC=C)CCCCC=C)COC(=O)CCCN1CCCC1 [Compound (6), 1-[2-({[8-Oxo-8-(trideca-1,12-dien-7-yloxy)octanoyl]oxy}methyl)-3-{[4-(pyrrolidin-1-yl)butanoyl]oxy}propyl]-8-trideca-1,12-dien-7-yl octanedioate]			78.46%	1.17%			
121.2 nm	91.02%	11.8%	74.3%		85.54 nm				C=CCCCC(CCCC=C)OC(=O)CCCCCCC(=O)OCC(COC(=O)CCCCCCC(=O)OC(CCCC=C)CCCC=C)COC(=O)CCCN1CCCC1 [Compound (7), 1-[2-({[8-Oxo-8-(undeca-1,10-dien-6-yloxy)octanoyl]oxy}methyl)-3-{[4-(pyrrolidin-1-yl)butanoyl]oxy}propyl] 8-undeca-1,10-dien-6-yl octanedioate]				0.87%			
82.7 nm	72.57%	17.4%	63.6%	0.12	105.44 nm				CC/C=C\CCCC(CCC/C=C\CC)OC(=O)CCCCC(=O)OCC(COC(=O)CCCCC(=O)OC(CCC/C=C\CC)CCC/C=C\CC)COC(=O)CCCN1CCCC1 [Compound (12), 1-{2-[({6-Oxo-6-[(3Z,12Z)-pentadeca-3,12-dien-8-yloxy]hexanoyl}oxy)methyl]-3-{[4-(pyrrolidin-1-yl)butanoyl]oxy}propyl}6-(3Z,12Z)-pentadeca-3,12-dien-8-yl hexanedioate]				0.22%			
96.6 nm	94.81%	11.6%							C=CCCCC(CCCC=C)COC(=O)CCCCCCC(=O)OCC(COC(=O)CCCCCCC(=O)OCC(CCCC=C)CCCC=C)COC(=O)CCCN1CCCC1 [Compound (15), 1-(2-1[(8-oxo-8-{[2-(pent-4-en-1-yl)hept-6-en-1-yl]oxy}octanoyl)oxy]methyl}-3-{[4-(pyrrolidin-1-yl)butanoyl]oxy}propyl) 8-[2-(pent-4-en-1-yl)hept-6-en-1-yl] octanedioate]				4.05%			
96.8 nm	96.3%	13.5%	64.3%	0.09	129.85 nm				O=C(CCCCCCC(=O)OC(CCCCCC(F)(F)F)CCCCCC(F)(F)F)OCC(COC(=O)CCCCCCC(=O)OC(CCCCCC(F)(F)F)CCCCCC(F)(F)F)COC(=O)CCCN1CCCC1 [Compound (16), 1-(1,1,1,13,13,13-Hexafluorotridecan-7-yl)-8-{2-[({8-[(1,1,1,13,13,13-hexafluorotridecan-7-yl)oxy]-8-oxooctanoyl}oxy)methyl]-3-{[4-(pyrrolidin-1-yl)butanoyl]oxy}propyl} octanedioate]			72.41%	0.6%			
149.3 nm	88.58%	13.1%	98.2%	0.07	138.63 nm	106 nm	93.9%	16.9%	C=CCCCC(CCCC=C)COC(=O)CCCCCC(=O)OCC(COC(=O)CCCCCC(=O)OCC(CCCC=C)CCCC=C)COC(=O)CCCN1CCCC1 [Compound (18), 1-(2-{[(7-Oxo-7-{[2-(pent-4-en-1-yl)hept-6-en-1-yl]oxy}heptanoyl)oxy]methyl}-3-{[4-(pyrrolidin-1-yl)butanoyl]oxy}propyl) 7-[2-(pent-4-en-1-yl)hept-6-en-1-yl] heptanedioate]				2.5%	0.99%	0.29%	
						71.15 nm	98.71%	11.8%	CC/C=C\CCCC(CCC/C=C\CC)OC(=O)CCCCCC(=O)OCC(COC(=O)CCCCCC(=O)OC(CCC/C=C\CC)CCC/C=C\CC)COC(=O)NCCN1CCCC1 [Compound (28), 1-{2-[({7-oxo-7-[(3Z,12Z)-pentadeca-3,12-dien-8-yloxy]heptanoyl}oxy)methyl]-3-({[2-(pyrrolidin-1-yl)ethyl]carbamoyl}oxy)propyl}7-(3Z,12Z)-pentadeca-3,12-dien-8-ylheptanedioate]							0.65%

From patent publication US20260176283A1, “IONIZABLE LIPIDS WITH LINEAR HEAD GROUPS” (Beam Therapeutics Inc., priority 2023, published 2026)
